Test [1] concerns MDA-MB-231. As to the kind of experiment: Antiproliferative activity against human MDA-MB-231 cells assessed as reduction in cell viability incubated for 72 hrs by Celltiter-Glo reagent based assay. Type of test: functional. The conditions noted are these: MDA-MB-231, 72 h.
The test system of test [2] is HepG2. As to the kind of experiment: Antiproliferative activity against human HepG2 cells assessed as reduction in cell viability incubated for 72 hrs by Celltiter-Glo reagent based assay. Format: functional. The conditions noted are these: HepG2, 72 h.
Test [3] relates to HCT-116. As to the kind of experiment: Anticancer activity against human HCT-116 cells assessed as inhibition of cell viability at 20 uM relative to control. Type of test: functional.
Test [4] deals with HCT-116. The test can be described thus: Anticancer activity against human HCT-116 cells assessed as reduction in cell viability. Type of test: functional, cell-based.
The test system of test [5] is HeLa. As to the kind of experiment: Antiproliferative activity against human HeLa cells assessed as reduction in cell growth by MTT assay. Type of test: functional, cell-based.
Another test relates to A549. The test can be described thus: Antiproliferative activity against human A549 cells assessed as reduction in cell growth by MTT assay. Format: functional, cell-based.
Test [6] concerns HeLa. The test can be described thus: Antiproliferative activity against human Hela cells by MTT assay. Type of test: functional, cell-based.
Test [7] has as its system HCT-116. The test can be described thus: Antiproliferative activity against human HCT-116 cells by MTT assay. Type of test: functional, cell-based.
Test [8] relates to HeLa. The test can be described thus: Anticancer activity against human HeLa cells assessed as reduction in cell growth. Type of test: functional, cell-based.
In another test the test system is 4T1. The test can be described thus: Anticancer activity against mouse 4T1 cells assessed as reduction in cell growth. Type of test: functional, cell-based.
Another test has as its system SMMC-7721. As to the kind of experiment: Antiproliferative activity against human SMMC-7721 cells by CCK8 assay. Format: functional, cell-based.
The next test concerns QGY-7703. The test can be described thus: Antiproliferative activity against human QGY-7703 cells by CCK8 assay. Format: functional, cell-based.
Another test has as its system L02. As to the kind of experiment: Antiproliferative activity against human L02 cells by CCK8 assay. Type of test: functional, cell-based.
For test [9], the target named is Lysine-specific demethylase 5C (Homo sapiens, UniProt P41229). The test can be described thus: Inhibition of KDM5C (unknown origin).
Test [10] has as its system MCF7. As to the kind of experiment: Antiproliferative activity against human MCF7 cells assessed as reduction in cell growth. Format: functional, cell-based.
The test system of test [11] is MCF7. The test can be described thus: Cytotoxicity against human MCF7 cells assessed as reduction in cell viability incubated for 48 hrs by SRB assay. Type of test: functional, cell-based. The conditions noted are these: MCF7, 48 h.
A further test concerns DU-145. As to the kind of experiment: Cytotoxicity against human DU-145 cells assessed as reduction in cell viability incubated for 48 hrs by SRB assay. Format: functional, cell-based. The conditions noted are these: DU-145, 48 h.
Test [12] concerns MDA-MB-231. The test can be described thus: Cytotoxicity against human MDA-MB-231 cells assessed as reduction in cell viability incubated for 48 hrs by SRB assay. Type of test: functional, cell-based. The conditions noted are these: MDA-MB-231, 48 h.
Test [13] concerns HepG2. As to the kind of experiment: Cytotoxicity against human HepG2 cells assessed as reduction in cell viability incubated for 48 hrs by SRB assay. Format: functional, cell-based. The conditions noted are these: HepG2, 48 h.
Test [14] has as its system HeLa. As to the kind of experiment: Cytotoxicity against human HeLa cells assessed as reduction in cell viability incubated for 48 hrs by SRB assay. Type of test: functional, cell-based.
Another test deals with K562. The test can be described thus: Antiproliferative activity against human K562 cells assessed as reduction in cell viability incubated for 72 hrs by Celltiter-Glo reagent based assay. The conditions noted are these: K562, 72 h. Format: functional.
In a further test the test system is Jurkat. As to the kind of experiment: Antiproliferative activity against human Jurkat cells assessed as reduction in cell viability incubated for 72 hrs by Celltiter-Glo reagent based assay. Type of test: functional.
Test [15] has as its system MDA-MB-231. As to the kind of experiment: Antiproliferative activity against human MDA-MB-231 cells. Type of test: functional, cell-based.
Another test relates to T47D. The test can be described thus: Antiproliferative activity against human T47D cells. Format: functional, cell-based.
For test [16], the system named is MCF7. The test can be described thus: Antiproliferative activity against human MCF7 cells. Format: functional, cell-based.
The next test concerns LoVo. As to the kind of experiment: Antiproliferative activity against human LoVo cells. Type of test: functional, cell-based.
For test [17], the system named is HCT-116. The test can be described thus: Antiproliferative activity against human HCT-116 cells. Format: functional, cell-based.
The next test has as its system K562/Adr. The test can be described thus: Reversal of multidrug resistance in human K562/Adr cells assessed as reversal fold by measuring ratio of adriamycin IC50 to adriamycin IC50 in presence of test compound at 10 uM. Type of test: functional.
A further test concerns CAL-27. The test can be described thus: Antiproliferative activity against human CAL-27 cells assessed as reduction in cell viability incubated for 24 hrs by MTT assay. Type of test: functional, cell-based. The conditions noted are these: CAL-27, 24 h.
Test [18] relates to MDA-MB-231. The test can be described thus: Cytotoxicity against human MDA-MB-231 cells assessed as reduction in cell viability incubated for 24 hrs by CCK-8 assay. Format: functional, cell-based. The conditions noted are these: MDA-MB-231, 24 h.

This is an account of results in ChEMBL document CHEMBL6134800, “Applications of innovative synthetic strategies in anticancer drug discovery: The driving force of new chemical reactions” (Bioorg Med Chem Lett, 2025).

Converted amounts (≈) assume the structure as drawn.

Sequence of Lysine-specific demethylase 5C (P41229 whole entry): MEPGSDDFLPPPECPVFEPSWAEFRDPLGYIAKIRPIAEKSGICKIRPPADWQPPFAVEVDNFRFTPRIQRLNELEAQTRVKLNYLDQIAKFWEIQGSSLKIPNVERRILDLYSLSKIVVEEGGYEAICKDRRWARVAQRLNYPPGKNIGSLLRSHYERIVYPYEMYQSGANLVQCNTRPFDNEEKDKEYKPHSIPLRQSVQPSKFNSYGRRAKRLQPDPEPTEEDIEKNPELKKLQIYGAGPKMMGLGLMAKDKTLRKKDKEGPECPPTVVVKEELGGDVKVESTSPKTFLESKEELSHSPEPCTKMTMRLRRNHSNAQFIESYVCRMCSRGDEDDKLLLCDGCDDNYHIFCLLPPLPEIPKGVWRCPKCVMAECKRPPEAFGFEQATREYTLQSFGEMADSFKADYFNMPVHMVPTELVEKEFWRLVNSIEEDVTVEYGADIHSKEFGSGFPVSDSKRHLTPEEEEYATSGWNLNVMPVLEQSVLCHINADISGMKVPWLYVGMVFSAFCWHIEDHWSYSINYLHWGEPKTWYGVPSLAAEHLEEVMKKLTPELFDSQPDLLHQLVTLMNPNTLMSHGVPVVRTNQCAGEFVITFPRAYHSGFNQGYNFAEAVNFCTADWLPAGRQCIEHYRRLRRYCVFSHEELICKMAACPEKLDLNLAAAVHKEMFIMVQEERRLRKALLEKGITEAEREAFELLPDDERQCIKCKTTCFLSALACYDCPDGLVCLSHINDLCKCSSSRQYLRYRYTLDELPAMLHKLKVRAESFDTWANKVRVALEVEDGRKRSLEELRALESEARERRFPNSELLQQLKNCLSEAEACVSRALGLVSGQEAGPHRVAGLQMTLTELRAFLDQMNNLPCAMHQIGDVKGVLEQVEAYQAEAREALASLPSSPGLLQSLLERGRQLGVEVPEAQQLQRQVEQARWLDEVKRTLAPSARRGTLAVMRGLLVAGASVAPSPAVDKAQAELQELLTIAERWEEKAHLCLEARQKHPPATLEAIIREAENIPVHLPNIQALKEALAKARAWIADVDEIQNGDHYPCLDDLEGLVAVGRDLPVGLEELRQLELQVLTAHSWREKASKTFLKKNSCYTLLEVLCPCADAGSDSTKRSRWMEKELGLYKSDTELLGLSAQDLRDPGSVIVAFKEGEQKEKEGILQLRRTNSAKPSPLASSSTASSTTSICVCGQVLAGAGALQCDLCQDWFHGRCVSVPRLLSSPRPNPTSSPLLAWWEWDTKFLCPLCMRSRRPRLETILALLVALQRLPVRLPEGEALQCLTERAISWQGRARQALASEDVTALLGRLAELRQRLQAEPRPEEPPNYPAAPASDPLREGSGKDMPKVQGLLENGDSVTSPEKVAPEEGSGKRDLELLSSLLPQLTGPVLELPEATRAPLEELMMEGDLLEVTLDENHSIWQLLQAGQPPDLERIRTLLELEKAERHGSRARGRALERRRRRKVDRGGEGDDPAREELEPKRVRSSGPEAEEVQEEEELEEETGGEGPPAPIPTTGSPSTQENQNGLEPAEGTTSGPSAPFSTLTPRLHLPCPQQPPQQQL

For the compound `COc1ccc(-c2c(C3(O)C=CC(=O)C=C3)[nH]c(=O)c3c2c2ccccc2n3Cc2ccccc2)cc1`, the IC50 turned out to be 0.66 µM in the test on MDA-MB-231 [1] and 1.39 µM with HepG2 [2].
`CC(C)OC(=O)C1=CN(c2ccccc2)CC(O)(c2cccc(Cl)c2)O1` (stereo not drawn): the inhibition at 20 µM with HCT-116 [3] was 77%. The IC50 in the test with HCT-116 [4] worked out at 7.1 µM.
For the compound `OC1(C(F)(F)F)C=C(c2ccccc2)c2cc3ccccc3n21` (stereo not drawn), the values for the IC50 in the test with HeLa [5] and with A549 were 2.17 µM and 11.9 µM, respectively.
Regarding `CCOc1cccc(-c2ccc3c(c2)c2ccccc2n3C)c1C(=O)Nc1cccc2cccnc12`, the IC50 in the test with HeLa [6] is 9.6 µM; in the test with HCT-116 [7], 15.2 µM.
In the case of `Cc1ccc2c(c1)C(=O)OC1(C)CCCCN21` (stereo not drawn), the values for the IC50 with HeLa [8] and in the test with 4T1 were 25.1 µg/mL (≈ 109 µM) and 10.1 µg/mL (≈ 43.8 µM), respectively.
In the case of `COC(=O)[C@]1(C)CC[C@]2(C)CC[C@]3(C)C4=CC=C5C(=CC(=O)C(OC(=O)CCCc6cn(CCCO[C@@H]7O[C@H](CO)[C@@H](O)[C@H](O)[C@H]7O)nn6)=C5C)[C@]4(C)CC[C@@]3(C)[C@@H]2C1`, the values for the IC50 in the test with SMMC-7721, in the test on QGY-7703 and in the test with L02 were 2.78 µM, 5.56 µM and 4.61 µM, respectively.
`CCCCCCN(C)CCn1cc(-c2cccc(C(=O)O)c2)nn1`: the IC50 in test [9] was 3.01 µM.
Consider `CCOC(=O)C1=C(Nc2ccc(OC)cc2)C[C@H](c2ccc(Cl)cc2)N(c2ccc(OC)cc2)[C@H]1c1ccc(Cl)cc1`, for which the IC50 in the test with MCF7 [10] is 34.2 µg/mL (≈ 56.6 µM).
As to `CCOC(=O)c1sc(-c2ccc(OCC(C)C)c(C(Nc3ccc(C(F)(F)F)cc3I)P(=O)(OCC)OCC)c2)nc1C` (stereo not drawn), the IC50 in the test on MCF7 [11] was determined as 14.1 µg/mL (≈ 18.7 µM); in the test with DU-145, 3.34 µg/mL (≈ 4.43 µM); in the test with MDA-MB-231 [12], 8.54 µg/mL (≈ 11.3 µM); in the test on HepG2 [13], 26.1 µg/mL (≈ 34.6 µM); in the test on HeLa [14] it was 12.3 µg/mL (≈ 16.3 µM).
In the case of `O=C1C=CC2(O)c3c(nc4c(c3-c3ccccc3)c3ccccc3n4Cc3ccccc3)OC2C1` (stereo not drawn), the IC50 came to 2.1 µM in the test on K562 and 0.9 µM in the test on Jurkat.
For the compound `C=C1N(S(=O)(=O)c2ccc(C)cc2)c2ccccc2C1(C)N` (racemic), the IC50 in the test with MDA-MB-231 [15] came out at 3.13 µM; in the test with T47D, 5.37 µM; with MCF7 [16] it was 3.92 µM; in the test on LoVo it was 10.3 µM; in the test on HCT-116 [17], 12.6 µM.
Turning to `CCOC(=O)c1sc(-c2ccc(OCC(C)C)c(C(Nc3ccc([N+](=O)[O-])cc3)P(=O)(OCC)OCC)c2)nc1C` (stereo not drawn), the IC50 in the test with MCF7 [11] came to 12.3 µg/mL (≈ 20.3 µM); with DU-145, 2.13 µg/mL (≈ 3.52 µM); in the test on MDA-MB-231 [12], 6.3 µg/mL (≈ 10.4 µM); with HepG2 [13] it was 20.9 µg/mL (≈ 34.5 µM); with HeLa [14], 9.6 µg/mL (≈ 15.9 µM).
Taken in the same sequence, the figures for `CCOC(=O)c1sc(-c2ccc(OCC(C)C)c(C(Nc3ccc(OC)cc3)P(=O)(OCC)OCC)c2)nc1C` (stereo not drawn) were 12.5 µg/mL (≈ 21.2 µM), 3.02 µg/mL (≈ 5.11 µM), 8.18 µg/mL (≈ 13.8 µM), 22 µg/mL (≈ 37.3 µM) and 10.7 µg/mL (≈ 18.1 µM).
In turn, `O=C(Nc1cccc2cccnc12)c1ccccc1-c1ccc2c(c1)c1ccccc1n2-c1ccccc1` gave an IC50 in the test on HeLa [6] of 37.1 µM.
Take `CCOc1cc(CC(=O)N[C@@H](CC(C)C)c2ccccc2N2CCCCC2)cc2c1C(=O)N[C@@H](C)C(=O)N[C@@H](C(C)C)C(=O)OC/C(c1ccccc1)=C\C2`: the “fold change (FC)” value with K562/Adr stood at 176.3.
Take `O=c1[nH]c(/C=C2/C(c3ccccc3)=C(c3ccccc3)c3cc(C(F)(F)F)ccc32)nc2ccccc12`: the IC50 in the test on CAL-27 worked out at 9.41 µM.
Turning to `C=C1N(S(=O)(=O)c2ccc(C)cc2)c2ccccc2[C@@]1(C)N`, the IC50 in the test on MDA-MB-231 [15] was 6.66 µM; in the test on T47D it was 17.7 µM; with MCF7 [16], 16.1 µM; with LoVo it was over 25 µM; in the test with HCT-116 [17], over 25 µM.
In the case of `COc1ccc2c(c1)CC(Nc1ccccc1)(C(F)(F)F)n1c-2nc2ccccc21` (stereo not drawn), the IC50 in the test on MDA-MB-231 [18] was 1.3 µM.
Regarding `CC(C)OC(=O)C1=CN(c2ccc3ccccc3c2)CC(O)(c2ccccc2)O1` (stereo not drawn), in the test on HCT-116 [3], the inhibition at 20 µM is 56%. Besides, the IC50 with HCT-116 [4] is 9.4 µM.
